Data taken from publication PMC9694494, “Resveratrol/Hydrazone Hybrids: Synthesis and Chemopreventive Activity against Colorectal Cancer Cells” (Pharmaceutics, 2022).
Read-outs that look alike come from different tables or passages of the source.

How the values were obtained:
[1] = test system: SW480 cells; assay: SRB cell viability (cytotoxicity), SW480; assay type: cell-based, human; details: for Selectivity Index SI1: CHO-K1/SW480 IC50 ratio; for Selectivity Index SI2: HaCaT/SW480 IC50 ratio; for IC50: Homo sapiens, SW480, SRB, read-out: IC50 ± SEM SW480; for selectivity (SI): SW480 versus the nonmalignant cell lines, 48 h after treatment
Description: (§1) Human colon cancer cell lines (SW480 and SW620), together with nonmalignant cells (CHO-K1 and HaCaT) were used to study the biological activity. Cells were purchased from the European Collection of Authenticated Cell Cultures (ECACC, UK). Dulbecco’s Modified Eagle Medium (DMEM) containing heat-inactivated (56 °C) horse serum (10%), non-essential amino acids (1%) and antibiotics (penicillin/streptomycin, 1%) (Gibco Invitrogen, Carlsbad, CA, USA) was used to maintain the cells, reducing the horse serum to 3%, and, adding insulin ([…]), transferrin ([…]) and selenium (5 ng/mL) (ITS-defined medium; Gibco, Invitrogen, Carlsbad, CA, USA) for all the experiments.
(§2) The colorimetric test with Sulforhodamine B (SRB) was used to evaluate cell viability. Cell density was adjusted to seed 20.000 cells/well in 96-well tissue culture plates. Cells were first incubated for 24 h and then treated with the synthesized hybrids, the lead compounds (PIH and resveratrol), and the reference drug (5-FU) (concentrations between 0.01 and 200 µM), using DMSO (below 1%) as vehicle control. The optimum conditions were 37 °C and 5% CO2. After the end of each treatment, cold trichloroacetic acid (MERCK, 50% v/v) was added and preserved for one hour at 4 °C, to fix the cells. Then, cell proteins were stained with 0.4% (w/v) SRB (Sigma-Aldrich, St. Louis, MO, USA), and subsequently washed with acetic acid (1%) to remove unbound SRB. After air-drying, protein-bound SRB was solubilized in 10 mM Tris-base before reading the absorbance at 492 nm in a microplate reader (Mindray MR-96A). All experiments were performed at least three times.

[2] = test system: HaCaT cells; assay: SRB cell viability (cytotoxicity), HaCaT; assay type: cell-based; details: Homo sapiens, HaCaT nonmalignant cells, read-out: IC50 ± SEM HACAT
Description: as §1, §2

[3] = test system: SW620 cells; assay: Cell death induction (Annexin-V/FITC and PI flow cytometry), SW620; assay type: cell-based, human; details: SW620, 48 h exposure
Description: Flow cytometric analysis using a double fluorescent staining with Annexin-V/FITC and propidium iodide (Roche Diagnostics) was used to evaluate phosphatidylserine exposure and membrane damage. Colon cancer cells (SW480 and SW620) were seeded at 2.5 × 10^5 in each 6-well plate and treated for 48 h. […] At the end of each treatment, cells were scraped and centrifuged. The pellet was resuspended in versene buffer with the fluorescent dyes and incubated for 20 min in darkness. Data were analyzed with FlowJo 7.6.2 (Ashland, OR, USA). Cells with double-positive staining for Annexin-V and PI were considered late apoptotic or dead cells, while the single staining with Annexin-V/FITC (Annexin-V/FITC positive) or propidium iodide (PI positive) was considered for early apoptotic or necrotic cells, respectively. Assays were performed twice.

[4] = test system: SW480 cells; assay: Mitochondrial membrane potential (DiOC6/PI flow cytometry), SW480; assay type: cell-based, human; details: for Q1: PI-positive cells with membrane damage / Q2: PI-positive cells with membrane damage / Q3: DiOC6 high, live cells with high membrane polarization / Q4: DiOC6 low, cells in latency that lose membrane polarization: SW480, treated at IC50 value, DiOC6/PI
Description: To evaluate changes in mitochondrial membrane permeability, the fluorescent dyes DiOC6 (3,3′-dihexyloxacarbocyanine iodide, Thermo Fisher Scientific, Waltham, MA, USA) and propidium iodide (PI) were used. Cell density was adjusted to seed 2.5 × 10^5 cells/well in 6-well tissue culture plates. […] Subsequently, cells were scraped with the same culture mean and stained with both fluorescent dyes, incubating at room temperature for 30 min in darkness. For each sample, 10,000 events were analyzed through flow cytometry with excitation at 488 nm and detection of the emission with the green (530/15 nm) and the red (610/20 nm) filters. The results informed about the cells with depolarized mitochondrial membranes.

[5] = test system: CHO-K1 cells; assay: SRB cell viability (cytotoxicity), CHO-K1; assay type: cell-based; details: Cricetulus griseus, CHO-K1 nonmalignant cells, read-out: IC50 ± SEM CHO
Description: as §1, §2

[6] = test system: SW480 cells; assay: Antiproliferative activity (SRB, 2-8 days), SW480; assay type: cell-based; details: Homo sapiens, read-out: Viability (%) ± SE; for viability at 3 µM: SW480, 3 µM; for viability at 6 µM: SW480, 6 µM; for viability at 12 µM: SW480, 12 µM; for viability at 24 µM: SW480, 24 µM; for viability at 48 µM: SW480, 48 µM
Description: The procedure for evaluating the antiproliferative activity was carried out using the same colorimetric test (SRB) described for cell viability, with minor modifications. Briefly, 2500 cells/well were seeded in 96-well tissue culture plates and incubated as in the previously described conditions for 0, 2, 4, 6, and 8 days. […] The culture medium was changed every 48 h. After each incubation time, cells were fixed, stained, and read as previously described for this technique.

[7] = test system: SW620 cells; assay: SRB cell viability (cytotoxicity), SW620; assay type: cell-based, human; details: for Selectivity Index SI3: CHO-K1/SW620 IC50 ratio; for Selectivity Index SI4: HaCaT/SW620 IC50 ratio; for IC50: Homo sapiens, SW-620, SRB, read-out: IC50 ± SEM SW620
Description: as §1, §2

Compound: O=C(N/N=C/c1c(O)cc(O)cc1/C=C/c1ccc(O)cc1)c1ccncc1 [compound 7, N′-((E)-2,4-dihydroxy-6-((E)-4-hydroxystyryl)benzylidene)isonicotinohydrazide]
- Selectivity Index SI1 ([1]; 24 H): 0.80
- Selectivity Index SI2 ([1]; 24 H): 0.94
- Selectivity Index SI1 ([1]; 48 H): 2.14
- Selectivity Index SI2 ([1]; 48 H): 2.49
- IC50 ([1]; 24 H): 84.2 ± 10 µM
- IC50 ([1]; 48 H): 19 ± 1.4 µM
- selectivity (SI) [1]: > 1
- IC50 ([2]; 24 H): 79 ± 6.73 µM
- IC50 ([2]; 48 H): 47.3 ± 2.5 µM
- plasma membrane integrity (PI positive staining) [3]: induced plasma membrane disintegration
- effect on mitochondrial membrane potential (ΔΨm) ([4]; SW480, regarding the control, increase in DiOC6 low population): causing depolarization in the mitochondrial membrane
- Q1: PI-positive cells with membrane damage [4]: 1.24%
- Q2: PI-positive cells with membrane damage [4]: 0.052%
- Q3: DiOC6 high, live cells with high membrane polarization [4]: 67.3%
- Q4: DiOC6 low, cells in latency that lose membrane polarization [4]: 31.4%
- IC50 ([5]; 24 H): 67.2 ± 4.32 µM
- IC50 ([5]; 48 H): 40.5 ± 2.4 µM
- viability at 3 µM ([6]; 48 h, 2 days after plating): 100%
- viability at 6 µM ([6]; 48 h, 2 days after plating): 90.5 ± 1.38%
- viability at 12 µM ([6]; 48 h, 2 days after plating): 59.1 ± 0.27%
- viability at 24 µM ([6]; 48 h, 2 days after plating): 27.2 ± 0.5%
- viability at 48 µM ([6]; 48 h, 2 days after plating): 19.6 ± 2.58%
- viability at 3 µM ([6]; 96 h, 4 days after plating): 99.45 ± 0.55%
- viability at 6 µM ([6]; 96 h, 4 days after plating): 78.5 ± 1.56%
- viability at 12 µM ([6]; 96 h, 4 days after plating): 11.4 ± 0.35%
- viability at 24 µM ([6]; 96 h, 4 days after plating): 0%
- viability at 48 µM ([6]; 96 h, 4 days after plating): 0%
- viability at 3 µM ([6]; 144 h, 6 days after plating): 96.87 ± 0.14%
- viability at 6 µM ([6]; 144 h, 6 days after plating): 67.4 ± 1.82%
- viability at 12 µM ([6]; 144 h, 6 days after plating): 5.49 ± 0.05%
- viability at 24 µM ([6]; 144 h, 6 days after plating): 0%
- viability at 48 µM ([6]; 144 h, 6 days after plating): 0%
- viability at 3 µM ([6]; 192 h, 8 days after plating): 74.76 ± 0.02%
- viability at 6 µM ([6]; 192 h, 8 days after plating): 48.5 ± 1.11%
- viability at 12 µM ([6]; 192 h, 8 days after plating): 2.52 ± 0.22%
- viability at 24 µM ([6]; 192 h, 8 days after plating): 0%
- viability at 48 µM ([6]; 192 h, 8 days after plating): 0%
- Selectivity Index SI3 ([7]; 24 H): 0.55
- Selectivity Index SI4 ([7]; 24 H): 0.64
- Selectivity Index SI3 ([7]; 48 H): 1.06
- IC50 ([7]; 24 H): 122 ± 10.8 µM
- IC50 ([7]; 48 H): 38.4 ± 3.3 µM
- selectivity (SI) ([7]; SW620 versus the nonmalignant cell lines, 48 h after treatment): > 1

Compound: COc1ccc(C(=O)N/N=C/c2c(O)cc(O)cc2/C=C/c2ccc(O)cc2)c(OC)c1 [6e, N′-((E)-2,4-dihydroxy-6-((E)-4-hydroxystyryl)benzylidene)-2,4-dimethoxybenzohydrazide]
- Selectivity Index SI1 ([1]; 24 H): 0.85
- Selectivity Index SI2 ([1]; 24 H): 1.42
- Selectivity Index SI1 ([1]; 48 H): 2.89
- Selectivity Index SI2 ([1]; 48 H): 2.94
- IC50 ([1]; 24 H): 24.2 ± 3.29 µM
- IC50 ([1]; 48 H): 6.5 ± 1.9 µM
- selectivity (SI) [1]: > 1
- IC50 ([2]; 24 H): 34.4 ± 3.96 µM
- IC50 ([2]; 48 H): 19.1 ± 0.8 µM
- Q1: PI-positive cells with membrane damage [4]: 0.288%
- Q2: PI-positive cells with membrane damage [4]: 0.831%
- Q3: DiOC6 high, live cells with high membrane polarization [4]: 98.6%
- Q4: DiOC6 low, cells in latency that lose membrane polarization [4]: 0.305%
- IC50 ([5]; 24 H): 20.6 ± 3.06 µM
- IC50 ([5]; 48 H): 18.8 ± 1.9 µM
- viability at 3 µM ([6]; 48 h, 2 days after plating): 95 ± 3.11%
- viability at 6 µM ([6]; 48 h, 2 days after plating): 58.9 ± 0.89%
- viability at 12 µM ([6]; 48 h, 2 days after plating): 38.4 ± 2.67%
- viability at 24 µM ([6]; 48 h, 2 days after plating): 23.9 ± 0.82%
- viability at 48 µM ([6]; 48 h, 2 days after plating): 9.44 ± 1.17%
- viability at 3 µM ([6]; 96 h, 4 days after plating): 68.5 ± 1.31%
- viability at 6 µM ([6]; 96 h, 4 days after plating): 10.5 ± 0.87%
- viability at 12 µM ([6]; 96 h, 4 days after plating): 2.78 ± 0.42%
- viability at 24 µM ([6]; 96 h, 4 days after plating): 0.81 ± 0.38%
- viability at 48 µM ([6]; 96 h, 4 days after plating): 0.3 ± 0.33%
- viability at 3 µM ([6]; 144 h, 6 days after plating): 49 ± 2.08%
- viability at 6 µM ([6]; 144 h, 6 days after plating): 5.03 ± 0.19%
- viability at 12 µM ([6]; 144 h, 6 days after plating): 0.76 ± 0.36%
- viability at 24 µM ([6]; 144 h, 6 days after plating): 0%
- viability at 48 µM ([6]; 144 h, 6 days after plating): 0%
- viability at 3 µM ([6]; 192 h, 8 days after plating): 33.86 ± 0.3%
- viability at 6 µM ([6]; 192 h, 8 days after plating): 2.52 ± 0.1%
- viability at 12 µM ([6]; 192 h, 8 days after plating): 0.48 ± 0.11%
- viability at 24 µM ([6]; 192 h, 8 days after plating): 0%
- viability at 48 µM ([6]; 192 h, 8 days after plating): 0%
- Selectivity Index SI3 ([7]; 24 H): 0.28
- Selectivity Index SI4 ([7]; 24 H): 0.46
- Selectivity Index SI3 ([7]; 48 H): 0.67
- Selectivity Index SI4 ([7]; 48 H): 0.69
- IC50 ([7]; 24 H): 74.8 ± 12.9 µM
- IC50 ([7]; 48 H): 27.8 ± 3.9 µM
